≈ marks a conversion by molar mass, not a printed value. Like-named read-outs stand apart in the source and are kept apart here.
Experiments:
C. albicans (ATCC 90028) = assay: MIC determination using susceptibility method (broth microdilution); format: cell-based; conditions: Candida albicans
Experimental: (§1) Minimum inhibitory concentrations (MICs) were determined by broth microdilution according to CLSI guidelines (CLSI, M100-20^1, M7-A8^2, M27-A3^3). The compounds were tested in the range from […]. Colonies were taken directly from a second-pass culture plate and prepared to a suspension equivalent to the 0.5 McFarland standard using normal saline. […] The panels were incubated at 35° C. for 16 to 20 hours before reading the MIC endpoints. The compounds of Examples 12, 29, 59, 63 and 66-71 were dissolved in DMSO to make the initial solutions of 5120 μg/ml. These solutions were diluted 1:10 in sterile water to a stock solution of 512 μg/ml. The stock solutions were further diluted into the appropriate broth medium for the sequential dilutions used in the broth microdilution panels. S. pneumoniae was tested in Mueller Hinton (MH) broth with 3% lysed horse blood and C. albicans was tested in RPMI-1640 medium. All other organisms were tested in MH broth.

E. coli (ATCC 25922) = assay: as above; format: cell-based; conditions: Escherichia coli
Experimental: as §1

E. faecalis (ATCC 29212) = assay: as above; format: cell-based; conditions: Enterococcus faecalis
Experimental: as §1

MRSA (IHMA #510059) = assay: as above; format: cell-based; conditions: Staphylococcus aureus, read-out: MIC (μg/ml) MRSA (IHMA #510059)
Experimental: as §1

MSSA (IHMA #555189) = assay: as above; format: cell-based; conditions: Staphylococcus aureus, read-out: MIC (μg/ml) MSSA (IHMA #555189)
Experimental: as §1

S. aureus ATCC 29213 = assay: as above; format: cell-based; conditions: Staphylococcus aureus
Experimental: as §1

[1] = test system: S. pneumoniae (ATCC 49619); assay: as above; format: cell-based; conditions: Streptococcus pneumoniae
Experimental: as §1

human albumin (HSA) = human albumin (HSA) (Homo sapiens (Human), UniProt P02768); assay: HSA binding analysis using a chiral HSA column; format: in vitro ADME; conditions: for HSA Binding (%): AB%=[k′/(k′+1)]*100, pH 7.0; for HSA Binding (%) / Conclusion (HSA binding class): chiral HSA column; for k′: capacity factor, k′=(Tr−T0)/T0; for Tr: retention time on chiral HSA column, pH 7.0, 37° C.; for affinity in vitro to human albumin: text summary of Table 7
Chain of human albumin (HSA) (P02768 25-609): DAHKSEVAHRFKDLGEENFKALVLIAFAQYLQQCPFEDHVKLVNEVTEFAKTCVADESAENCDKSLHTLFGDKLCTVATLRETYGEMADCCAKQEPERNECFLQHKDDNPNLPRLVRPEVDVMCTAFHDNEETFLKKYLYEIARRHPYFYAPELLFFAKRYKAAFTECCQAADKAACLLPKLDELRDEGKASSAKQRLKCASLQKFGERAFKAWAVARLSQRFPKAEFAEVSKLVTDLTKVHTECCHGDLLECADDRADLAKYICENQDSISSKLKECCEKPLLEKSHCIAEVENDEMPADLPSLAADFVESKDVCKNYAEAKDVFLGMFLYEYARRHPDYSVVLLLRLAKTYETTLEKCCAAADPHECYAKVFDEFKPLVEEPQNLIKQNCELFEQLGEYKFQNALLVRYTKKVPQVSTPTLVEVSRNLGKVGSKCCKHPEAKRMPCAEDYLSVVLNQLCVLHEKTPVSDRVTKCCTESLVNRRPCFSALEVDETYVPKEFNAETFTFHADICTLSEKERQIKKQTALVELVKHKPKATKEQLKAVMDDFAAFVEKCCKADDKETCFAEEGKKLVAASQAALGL
Text: The test system used in this analysis was an HSA chiral column.
The relationship between the retention time (Tr) and percentage of albumin binding (AB %) depended on the dead time (TO) and the capacity factor (k′): AB%=[k′/(k′+1)]*100
HSA binding was classified as follows:
75%≦AB<90%: Moderate binding

[2] = ATCC90028, read-out: MIC (μg/ml) C. albicans (ATCC 90028)
[3] = ATCC25922, read-out: MIC (μg/ml) E. coli (ATCC 25922)
[4] = ATCC29212, read-out: MIC (μg/ml) E. faecalis (ATCC 29212)
[5] = ATCC29213, read-out: MIC (μg/ml) S. aureus ATCC 29213
[6] = ATCC49619, read-out: MIC (μg/ml) S. pneumoniae (ATCC 49619)
[7] = ATCC90028, Broth microdilution, RPMI-1640 medium, read-out: MIC (μg/ml) C. albicans (ATCC 90028)
[8] = ATCC25922, Broth microdilution, MH broth, read-out: MIC (μg/ml) E. coli (ATCC 25922)
[9] = ATCC29212, Broth microdilution, MH broth, read-out: MIC (μg/ml) E. faecalis (ATCC 29212)
[10] = ATCC29213, Broth microdilution, MH broth, read-out: MIC (μg/ml) S. aureus ATCC 29213
[11] = ATCC49619, Broth microdilution, MH broth with 3% lysed horse blood, read-out: MIC (μg/ml) S. pneumoniae (ATCC 49619)

Structure (SMILES) | MIC (C. albicans (ATCC 90028); [2]) [µg/mL] | MIC (E. coli (ATCC 25922); [3]) [µg/mL] | MIC (E. faecalis (ATCC 29212); [4]) [µg/mL] | MIC (MRSA (IHMA #510059)) [µg/mL] | MIC (MSSA (IHMA #555189)) [µg/mL] | MIC (S. aureus ATCC 29213; [5]) [µg/mL] | MIC [1, 6] [µg/mL] | HSA Binding (%) (human albumin (HSA)) | k′ (human albumin (HSA)) | Conclusion (HSA binding class) (human albumin (HSA)) | Tr (human albumin (HSA)) [min] | affinity in vitro to human albumin (human albumin (HSA)) | MIC (C. albicans (ATCC 90028); [7]) [µg/mL] | MIC (E. coli (ATCC 25922); [8]) [µg/mL] | MIC (E. faecalis (ATCC 29212); [9]) [µg/mL] | MIC (MRSA (IHMA #510059); Broth microdilution, MH broth) [µg/mL] | MIC (MSSA (IHMA #555189); Broth microdilution, MH broth) [µg/mL] | MIC (S. aureus ATCC 29213; [10]) [µg/mL] | MIC [1, 11] [µg/mL]
O=C1CCc2cc(/C=C/C(=O)N3CC(OCCc4cccs4)C3)cnc2N1 [Example 29, (E)-6-(3-Oxo-3-(3-(2-(thiophen-2-yl)ethoxy)azetidin-1-yl)prop-1-enyl)-3,4-dihydro-1,8-naphthyridin-2(1H)-one] | > 128 | > 128 | > 128 | 0.5 (≈ 1.3 µM) | 0.5 (≈ 1.3 µM) | 0.5 (≈ 1.3 µM) | > 128 | 55.7 | 1.259 | Low binding (AB<75%: Low binding) | 1.743 | low affinity |  |  |  |  |  |  | 
O=C1CCc2cc(/C=C/C(=O)N3CC(c4cc5ccccc5o4)C3)cnc2N1 [Example 59, (E)-6-(3-(3-(Benzofuran-2-yl)azetidin-1-yl)-3-oxoprop-1-enyl)-3,4-dihydro-1,8-naphthyridin-2(1H)-one] | 128 (≈ 343 µM) | 64 (≈ 171 µM) | 64 (≈ 171 µM) | 0.06 (≈ 0.161 µM) | 0.06 (≈ 0.161 µM) | 0.06 (≈ 0.161 µM) | 32 (≈ 85.7 µM) | 82.4 | 4.678 | Moderate | 4.378 | moderate affinity |  |  |  |  |  |  | 
CCCCOC1CN(C(=O)/C=C/c2cnc3c(c2)CC2(CCN(C)CC2)C(=O)N3)C1 [Example 63, (E)-6-(3-(3-Butoxyazetidin-1-yl)-3-oxoprop-1-enyl)-1′-methyl-1H-spiro[[1,8]naphthyridine-3,4′-piperidin]-2(4H)-one] | 128 (≈ 310 µM) | 64 (≈ 155 µM) | 64 (≈ 155 µM) | 1 (≈ 2.42 µM) | 1 (≈ 2.42 µM) | 1 (≈ 2.42 µM) | 64 (≈ 155 µM) | 56.3 | 1.288 | Low binding (AB<75%: Low binding) | 1.760 | low affinity |  |  |  |  |  |  | 
Cc1c(C2CN(C(=O)/C=C/c3cnc4c(c3)CCC(=O)N4)C2)oc2ccccc12 [Example 67, (E)-6-(3-(3-(3-Methylbenzofuran-2-yl)azetidin-1-yl)-3-oxoprop-1-enyl)-3,4-dihydro-1,8-naphthyridin-2(1H)-one] | > 128 | > 128 | > 128 | 0.06 (≈ 0.155 µM) | 0.06 (≈ 0.155 µM) | 0.06 (≈ 0.155 µM) | 128 (≈ 330 µM) | 89.3 | 8.360 | Moderate | 7.229 | moderate affinity |  |  |  |  |  |  | 
Cc1c(C2CN(C(=O)/C=C/c3cnc4c(c3)CC3(CCN(C)CC3)C(=O)N4)C2)oc2ccccc12 [Example 68, (E)-1′-Methyl-6-(3-(3-(3-methylbenzofuran-2-yl)azetidin-1-yl)-3-oxoprop-1-enyl)-1H-spiro[[1,8]naphthyridine-3,4′-piperidin]-2(4H)-one] | > 128 | > 128 | > 128 | 0.5 (≈ 1.06 µM) | 0.5 (≈ 1.06 µM) | 0.5 (≈ 1.06 µM) | 128 (≈ 272 µM) | 91.8 | 11.216 | High binding (AB≧90%: High binding) | 9.414 | high affinity |  |  |  |  |  |  | 
CN1CCC2(CC1)Cc1cc(/C=C/C(=O)N3CC(c4cc5ccccc5o4)C3)cnc1NC2=O [Example 69, (E)-6-(3-(3-(Benzofuran-2-yl)azetidin-1-yl)-3-oxoprop-1-en-1-yl)-1′-methyl-1H-spiro[[1,8]naphthyridine-3,4′-piperidin]-2(4H)-one] | > 128 | > 128 | > 128 | 1 (≈ 2.19 µM) | 1 (≈ 2.19 µM) | 1 (≈ 2.19 µM) | 128 (≈ 280 µM) | 88.5 | 7.730 | Moderate | 6.734 | moderate affinity |  |  |  |  |  |  | 
CCCO/N=C(\C)C1CN(C(=O)/C=C/c2cnc3c(c2)CCC(=O)N3)C1 [Example 70, 6-((E)-3-Oxo-3-(3-((E)-1-(propoxyimino)ethyl)azetidin-1-yl)prop-1-enyl)-3,4-dihydro-1,8-naphthyridin-2(1H)-one] |  |  |  |  |  |  |  | 36.7 | 0.580 | Low binding (AB<75%: Low binding) | 1.219 | low affinity | > 128 | > 128 | > 128 | 0.5 (≈ 1.4 µM) | 0.5 (≈ 1.4 µM) | 0.5 (≈ 1.4 µM) | > 128
CCCO/N=C(/C)C1CN(C(=O)/C=C/c2cnc3c(c2)CCC(=O)N3)C1 [Example 71, 6-((E)-3-Oxo-3-(3-((Z)-1-(propoxyimino)ethyl)azetidin-1-yl)prop-1-enyl)-3,4-dihydro-1,8-naphthyridin-2(1H)-one] |  |  |  |  |  |  |  | 28.8 | 0.404 | Low binding (AB<75%: Low binding) | 1.084 | low affinity | > 128 | > 128 | > 128 | 4 (≈ 11.2 µM) | 8 (≈ 22.4 µM) | 4 (≈ 11.2 µM) | 128 (≈ 359 µM)

Reference: US8846711B2, “Heterocyclic acrylamides and their use as pharmaceuticals” (Fab Pharma S.A.S., priority 2009, dated 2014)
